Data as given in PMC6915728 (Nature Communications, 2019).
Where two headings read alike, the source gives them in different places.

Tests used:
[1] = system: E. coli BW25113 overexpression strains (ASKA plasmids); test: Minimum inhibitory concentration (MIC), serial broth dilution, single-gene overexpression strains vs empty-vector control; type: cell-based, Escherichia coli; conditions: for Relative MIC: broth dilution, MS medium, 100 µM IPTG, 30 °C, 20-24 h, OD600, 3 replicates
Method: (§1) Minimum inhibitory concentrations (MIC) were determined with a standard serial broth dilution technique with a minor modification. Specifically, instead of a two-fold dilution series, smaller AMP concentration steps were used (typically 1.2-fold) for two reasons. […] Second, gene overexpressions caused typically only small changes in the MICs of AMPs and therefore higher resolution was required. The protocol was as follows. From a stock solution of an AMP, 12-steps serial dilution was prepared in fresh MS medium in 96-well microtiter plates. Each AMP was represented in 11 different concentrations (3 wells per AMP concentration per strain). Three wells contained only medium to check the growth in the absence of AMP. After overnight growth in MS medium supplemented with chloramphenicol, bacterial strains were diluted 20-fold into fresh MS medium and grown until the cell density reached OD600 ~1. Cells were induced by 100 µM of IPTG and incubated for 1 h at 30 °C with continuous shaking at 300 rpm. Following incubation, approximately half-million cells were inoculated into the wells of the 96-well microtiter plate with a 96‐pin replicator. We used three independent replicates for each strain and the corresponding control. Two rows in the 96-well plate contained only MS medium in order to obtain the background OD value of the medium. Plates were incubated at 30 °C with continuous shaking at 300 rpm. After 20–24 h of incubation, OD600 values were measured in a microplate reader (Biotek Synergy 2).

E. coli BW25113 ΔmlaD = test: MIC, serial broth dilution, mlaD knockout strain vs wild type; type: cell-based, Escherichia coli; conditions: mlaD deletion strain relative to control (E. coli BW25113); 3 replicates each; from optical density values of serial dilution plates, AMP in µg ml-1
Method: What could be the mechanism behind the antagonistic action of this pathway on membrane- versus intracellular-targeting AMPs? Since MlaD is part of a protein complex, it may lead to a loss-of-function effect upon overexpression[41],[42]. To test this, we asked whether overexpression and deletion of mlaD cause similar changes in susceptibility to a representative set of membrane- and intracellular-targeting AMPs.
as §1
A mlaD knockout strain of E. coli BW25113 carrying a kanamycin resistance cassette in the position of the gene was selected from the KEIO collection. The resistance marker was removed using plasmid-borne (pFT-A) expression of FLP recombinase leading to excision of the kanamycin resistance cassette. Cassette excision was verified by a polymerase chain reaction using the primers mlaD_del_ver_Fw (5′- […]) and mlaD_del_ver_Rev (5′- […]).
Supplementary Figure 13. […] The bacterial susceptibility of the mutant to AMPs was tested by MIC determination. Growth is shown relative to growth in the absence of the corresponding AMP. The blue line represents the mlaD knockout strain and the orange line represents the control strain (wild-type E. coli BW25113). Error bars indicate the standard errors based on three biological replicates. Source data are provided in the Source Data file.

[2] = system: bacterial species in which the gene showed activity; conditions: cited from earlier work
[3] = system: AMP-evolved E. coli lines; conditions: ref Spohn et al 2019, cited from earlier work
Source text: Supplement 41467_2019_13618_MOESM13_ESM.xlsx, sheet "Figure 6 and S15" | column: A comprehensive dataset of antimicrobial susceptibility of AMP-adapted lines to antimicrobial peptides (AMPs).

bacterial membrane = conditions: literature mining; ref superscript numbers in the cell, listed in Supplementary Data 7 sheet References; cited from earlier work
Source text: Supplement 41467_2019_13618_MOESM10_ESM.xlsx, sheet "AMP details" | column: Pore formation

[4] = overexpression strain narY, MIC of overexpression strain / MIC of empty-plasmid control

Substance: GIINTLQKYYRVRGGRAVLSLPKEEQIGKSTRGRKRRKK [HBD3, Human beta-defensin-3, human host-defense peptide; cluster C2]
- Average relative change in MIC ([1]; mlaD overexpression strain relative to control (wild-type+empty vector), 3 replicates each, from optical density values of serial dilution plates, AMP in µg ml-1): 1.75
- Relative MIC ([1]; overexpression strain hyfA, MIC of overexpression strain / MIC of empty-plasmid control): 0.8
- Relative MIC ([1]; overexpression strain mlaD, MIC of the overexpression strain / MIC of the control strain (wild-type carrying the empty plasmid)): >1.55
- Relative MIC [1, 4]: 0.8
- Average relative change in MIC (E. coli BW25113 ΔmlaD): 1.56
- Gene that modulates bacterial susceptibility to the AMP ([2]; Staphylococcus epidermidis, ref http://onlinelibrary.wiley.com/doi/10.1046/j.1462-5822.2004.00367.x/epdf): icaA(ica operon)

Substance: Peptide glycine-leucine amide [PGLA]
- Relative MIC ([1]; overexpression strain gadW, MIC of overexpression strain / MIC of empty-plasmid control): 0.63
- Relative MIC ([1]; overexpression strain lptB, MIC of overexpression strain / MIC of empty-plasmid control): 1.66
- Relative MIC ([1]; overexpression strain mlaC, MIC of overexpression strain / MIC of empty-plasmid control): 1.3
- Relative MIC ([1]; overexpression strain mzrA, MIC of overexpression strain / MIC of empty-plasmid control): 1.2
- Relative MIC [1, 4]: 0.8
- Relative MIC ([1]; overexpression strain nikB, MIC of overexpression strain / MIC of empty-plasmid control): 1.25
- Relative MIC ([1]; overexpression strain ptsN, MIC of overexpression strain / MIC of empty-plasmid control): 0.71
- Relative MIC ([1]; overexpression strain uhpC, MIC of overexpression strain / MIC of empty-plasmid control): 1.25
- Relative change in MIC (MIC of the AMP-adpated line / MIC of the ancestral strain) ([3]; AMP-adapted line BAC5_3): 1.4
- Relative change in MIC (MIC of the AMP-adpated line / MIC of the ancestral strain) ([3]; AMP-adapted line BAC5_5): 1.1
- Relative change in MIC (MIC of the AMP-adpated line / MIC of the ancestral strain) ([3]; AMP-adapted line BAC5_7): 0.9
- Relative change in MIC (MIC of the AMP-adpated line / MIC of the ancestral strain) ([3]; AMP-adapted line BAC5_10): 1.3
- Relative change in MIC (MIC of the AMP-adpated line / MIC of the ancestral strain) ([3]; AMP-adapted line CAP18_2): 2.5
- Relative change in MIC (MIC of the AMP-adpated line / MIC of the ancestral strain) ([3]; AMP-adapted line CAP18_5): 5.2
- Relative change in MIC (MIC of the AMP-adpated line / MIC of the ancestral strain) ([3]; AMP-adapted line CAP18_6): 1.6
- Relative change in MIC (MIC of the AMP-adpated line / MIC of the ancestral strain) ([3]; AMP-adapted line CAP18_8): 3
- Relative change in MIC (MIC of the AMP-adpated line / MIC of the ancestral strain) ([3]; AMP-adapted line CAP18_10): 4.3
- Relative change in MIC (MIC of the AMP-adpated line / MIC of the ancestral strain) ([3]; AMP-adapted line HBD3_3): 2.3
- Relative change in MIC (MIC of the AMP-adpated line / MIC of the ancestral strain) ([3]; AMP-adapted line HBD3_6): 3.6
- Relative change in MIC (MIC of the AMP-adpated line / MIC of the ancestral strain) ([3]; AMP-adapted line HBD3_8): 3.3
- Relative change in MIC (MIC of the AMP-adpated line / MIC of the ancestral strain) ([3]; AMP-adapted line HBD3_10): 1.9
- Relative change in MIC (MIC of the AMP-adpated line / MIC of the ancestral strain) ([3]; AMP-adapted line LL37_1): 1.4
- Relative change in MIC (MIC of the AMP-adpated line / MIC of the ancestral strain) ([3]; AMP-adapted line LL37_3): 1.9
- Relative change in MIC (MIC of the AMP-adpated line / MIC of the ancestral strain) ([3]; AMP-adapted line LL37_6): 1.8
- Relative change in MIC (MIC of the AMP-adpated line / MIC of the ancestral strain) ([3]; AMP-adapted line LL37_7): 5.2
- Relative change in MIC (MIC of the AMP-adpated line / MIC of the ancestral strain) ([3]; AMP-adapted line LL37_10): 1.8
- Relative change in MIC (MIC of the AMP-adpated line / MIC of the ancestral strain) ([3]; AMP-adapted line PEX_1): 3.5
- Relative change in MIC (MIC of the AMP-adpated line / MIC of the ancestral strain) ([3]; AMP-adapted line PEX_4): 3.5
- Relative change in MIC (MIC of the AMP-adpated line / MIC of the ancestral strain) ([3]; AMP-adapted line PEX_5): 1.9
- Relative change in MIC (MIC of the AMP-adpated line / MIC of the ancestral strain) ([3]; AMP-adapted line PEX_6): 2.1
- Relative change in MIC (MIC of the AMP-adpated line / MIC of the ancestral strain) ([3]; AMP-adapted line PEX_7): 2.9
- Relative change in MIC (MIC of the AMP-adpated line / MIC of the ancestral strain) ([3]; AMP-adapted line PR39_1): 1.6
- Relative change in MIC (MIC of the AMP-adpated line / MIC of the ancestral strain) ([3]; AMP-adapted line PR39_2): 1.5
- Relative change in MIC (MIC of the AMP-adpated line / MIC of the ancestral strain) ([3]; AMP-adapted line PR39_5): 0.8
- Relative change in MIC (MIC of the AMP-adpated line / MIC of the ancestral strain) ([3]; AMP-adapted line PR39_7): 1.5
- Relative change in MIC (MIC of the AMP-adpated line / MIC of the ancestral strain) ([3]; AMP-adapted line PR39_10): 0.4
- Relative change in MIC (MIC of the AMP-adpated line / MIC of the ancestral strain) ([3]; AMP-adapted line PROA_2): 1.6
- Relative change in MIC (MIC of the AMP-adpated line / MIC of the ancestral strain) ([3]; AMP-adapted line PROA_3): 1.1
- Relative change in MIC (MIC of the AMP-adpated line / MIC of the ancestral strain) ([3]; AMP-adapted line PROA_7): 0.6
- Relative change in MIC (MIC of the AMP-adpated line / MIC of the ancestral strain) ([3]; AMP-adapted line PROA_8): 1.2
- Relative change in MIC (MIC of the AMP-adpated line / MIC of the ancestral strain) ([3]; AMP-adapted line PROA_9): 0.9
- Relative change in MIC (MIC of the AMP-adpated line / MIC of the ancestral strain) ([3]; AMP-adapted line PXB_2): 1.8
- Relative change in MIC (MIC of the AMP-adpated line / MIC of the ancestral strain) ([3]; AMP-adapted line PXB_5): 1.5
- Relative change in MIC (MIC of the AMP-adpated line / MIC of the ancestral strain) ([3]; AMP-adapted line PXB_6): 8
- Relative change in MIC (MIC of the AMP-adpated line / MIC of the ancestral strain) ([3]; AMP-adapted line PXB_8): 4.5
- Relative change in MIC (MIC of the AMP-adpated line / MIC of the ancestral strain) ([3]; AMP-adapted line PXB_10): 5.5
- Gene that modulates bacterial susceptibility to the AMP ([2]; Salmonella typhimurium, Salmonella typhi, ref http://www.sciencedirect.com/science/article/pii/S009286740081750X): pagP
- Pore formation (whether AMP makes pores in the bacterial membrane) (bacterial membrane): Yes10,11
